“Also recorded” adds a separate entry of the source.
Assays:
[1] = system: Mdr2 knock out (Mdr2 KO) mice; conditions: 20 mg/kg i.p., vs untreated Mdr2 KO
Protocol: Mdr2 knock out (Mdr2 KO) mice are a genetic mouse model of PSC and display similar phenotypes to human PSC. Collagen content, ductular reaction and inflammation are elevated in Mdr2 knock out mice. Mdr2 KO mice also have enhanced mast cell (MC) presence. Total bile acid (TBA) content increases in Mdr2 knock out mice. Accumulation of chymase and tryptase positive mast cells (MC) in the liver was evaluated by immunohistochemistry.
(§1) Animal: 10-12 weeks old Mdr2 homozygous knockout (Mdr2 KO) mice were raised on FVB/NJ background. All mice were maintained in a temperature-controlled environment (20° C. to 22° C.) with 12:12-hour light/dark cycles and fed standard chow with access to drinking water ad libitum.

[2] = system: Mdr2 knock out (Mdr2 KO) mice; test: liver and serum total bile acid accumulation in Mdr2 KO mice, colorimetric assay; type: in vivo, mouse; conditions: 20 mg/kg i.p.
Protocol: as §1
Liver and serum bile acid accumulation was evaluated by using a colorimetric assay from Crystal Chem Inc (cat #80471). For Liver, total bile acid (TBA) was extracted from homogenized liver. For serum, (TBAs) were measured in serum by enzyme immunoassay (EIA). 3-alpha-hydroxysteroid dehydrogenase and Nicotinamide adenine dinucleotide (NAD) converted TBA into 3-keto steroids and NADH. The NADH reacts with nitroblue tetrazolium (NBT) to form a dye and this is measured at 540 nm absorbance.

[3] = system: Mdr2 knock out (Mdr2 KO) mice; test: quantitative real time PCR of mast cell, pro-fibrotic and biliary senescence markers in liver of Mdr2 KO mice; type: in vivo, mouse; conditions: for Timp2 expression (pro-fibrotic marker): Mdr2 KO = 3.41885191, p<0.0001
Protocol: as §1
Liver inflammation, fibrosis and biliary senescence was evaluated in liver sections by quantitative real time PCR for mast cell markers such as Mcpt1, Fcer1a, Tpsb2 (See FIG. 3) and pro-fibrotic markers such as Col1a1, Timp2 and Tgfb1, (See FIG. 8)_biliary senescence markers such as Cdkn2a, Cdkn2c, Tgfb1 & Gl1bl. (See FIG. 10). Liver tissue was lysed, and total RNA was isolated using trizol and fold change was calculated using ΔΔCt method.

[4] = system: Mdr2 knock out (Mdr2 KO) mice; test: liver staining in Mdr2 KO mice: collagen deposition (Fast Green/Sirius Red), hydroxyproline, F4/80, Desmin; type: in vivo, mouse; conditions: for portal tract F4/80 immunoreactivity (macrophage marker) / expression of desmin levels (cholangiocyte activation marker): vs untreated Mdr2 KO; for collagen deposition: Fast Green/Sirius Red staining
Protocol: Mdr2 knock out (Mdr2 KO) mice are a genetic mouse model of PSC and display similar phenotypes to human PSC. Collagen content, ductular reaction and inflammation are elevated in Mdr2 knock out mice. Mdr2 KO mice also have enhanced mast cell (MC) presence. Total bile acid (TBA) content increases in Mdr2 knock out mice. Accumulation of chymase and tryptase positive mast cells (MC) in the liver was evaluated by immunohistochemistry. Metabolic parameters such as Total Bile Acids (serum and liver), Ductular Reaction (CK-19), Hepatic Fibrosis (Fast Green Sirius Red staining), Collagen deposition, Hydroxyproline levels, Fibrotic Gene Markers, cholangiocyte Activation (Desmin), inflammation and mast cell products, (F4/80, which is a macrophage marker) and Senescence and SASP markers (TGF-β1, p21, p16) are measured to determine the effect of compound 1 in mouse model of hepatobiliary disease.
as §1
Fibrosis in liver was evaluated by quantitatively estimating collagen deposition with Fast green and Sirius red staining of formalin fixed paraffin-embedded liver sections ([…]). Hepatic fibrosis and collagen deposition is evaluated by quantitative Fast Green/Sirius Red staining. Macrophage accumulation was determined by staining for F4/80 antibody. (See FIG. 4) Cholangiocyte activation was analyzed by immunofluorescence for Desmin (See FIG. 5) and CK19 (marker for cholangiocytes). (See FIG. 9)

[5] = system: DSS-induced colitis C57Bl/6N mice; test: DSS-induced colitis mouse model (body weight loss, occult blood, stool consistency, DAI); type: in vivo; conditions: for DAI score: 20 mg/kg i.p. QD day 3 to 9, 0-4 scale, DSS vehicle 3 and above; for body weight loss (score) / occult blood score / rectal bleeding / stool consistency score / diarrhea: i.p. QD day 3 to 9, Compound 1 20 mg/kg, anti-TNF 15 mg/kg, observed 0-10 days
Protocol: Animal: For the DSS-induced acute model of experimental colitis, 8-week-old C57Bl/6N mice (weight between 17 and 20 grams, all females from Charles River Laboratories) were used. All mice were maintained in a temperature-controlled environment (20° C.±4° C.) with 12:12-hour light/dark cycles, relative humidity was maintained at 55%±10%, ventilation with 8-10 air changes per hour and fed standard chow with access to drinking water ad libitum.
Mice were treated with one oral cycles of 2.5% DSS (weight/volume) (DSS, molecular mass, 40 kDa; MP Biomedicals), characterized by 7 days of DSS exposure in drinking water, followed by 3 days of regular drinking water.
Administration of drugs: 3 days after starting DSS administration, mice were treated with testing drugs up to day 9, according to the experimental groups and the dose regimen described in table below. 0.5% (w/v) Hydroxypropyl cellulose was used as the vehicle.
From day 0 to 7, the animals received DSS in drinking water and the drugs were administered from day 3 to 9. Body weight and clinical observations such as diarrhea and bleeding from rectum were recorded daily post colitis induction until day 10.
Disease activity Index (DAI) and body weight loss were measured. Colitis severity was calculated using a disease activity index (DAI) score based on daily evaluation of body weight, stool consistency, and presence of blood in the stools, as determined using Hemoccult SENSA Cards (Beckman Coulter).
Grading of intestinal inflammation was determined according to the criteria proposed by Cooper et al (Cooper H S et al., Clinicopathologic study of dextran sulfate sodium experimental murine colitis. Lab Invest. 1993 August; 69(2):238-49, the DAI has been determined by scoring changes in variety of factors such as weight loss, stool consistency, and occult bleeding. The weight loss score ranges from 0 to 4, where zero signals no weight loss, score of 1 indicates the presence of 1-5% weight loss, a score of 2 signals the presence of 5-10% weight loss, a score of 3 signals the presence of 10-20% weight loss and a score of 4 represents greater than 20% weight loss. Likewise, the stool consistency score ranges from 0 to 4 with a score of zero representing normal stools, a score of 2 represents loose stools and a score of 4 represents diarrhea. The rectal bleeding is observed by scores ranging from 0 to 4, where a score of zero represents normal or no significant bleeding, a score of 2 indicates the presence of occult bleeding and a score of 4 indicates the presence of gross bleeding. A 5-point (0-4) DAI was obtained by calculating an average of body weight score, stool consistency and rectal bleeding.

## CCC[C@@H](NC(=O)N1C/C(=N/OCC)NC[C@H](Cc2cc(Cl)ccc2OC)C1=O)c1ccc(C(=O)O)c(N)c1 [Compound 1 monoacetic acid solvate, 2-amino-4-[(1R)-1-({[(3Z,6S)-6-(5-chloro-2-methoxybenzyl)-3-(ethoxyimino)-7-oxo-1,4-diazepan-1-yl]carbonyl}amino)butyl]benzoic acid monoacetic acid solvate]
[1]
  level of inflammatory marker Tpbs2: significantly reduced
  level of inflammatory marker mMCP1: significantly reduced
[2]; Mdr2 KO vehicle = 3.498252, p<0.0001
  Liver total bile acid content: 1.797 µM
[2]; Mdr2 KO vehicle = 62.04502, p<0.0001
  serum bile acid content: 26.24 µM
[3]; 10 mg/kg i.p., Mdr2 KO = 1.72254177, p=0.0138
  Tgfb1 expression (pro-fibrotic marker): 1.133 fold change
[3]; 10 mg/kg i.p., Mdr2 KO = 2.20989385, p=0.0058
  Fcer1 expression (mast cell marker): 1.532 fold change
[3]; 10 mg/kg i.p., Mdr2 KO = 2.21107066, p=0.8750
  Tpsb2 expression (mast cell marker): 1.53 fold change
[3]; 10 mg/kg i.p., Mdr2 KO = 2.33385383, p=0.0237
  Mcpt1 expression (mast cell marker): 0.8094 fold change
[3]; 10 mg/kg i.p., Mdr2 KO = 3.28243911, p=0.0005
  Col1a1 expression (pro-fibrotic marker): 1.509 fold change
[3]; 10 mg/kg i.p.
  Timp2 expression (pro-fibrotic marker): 1.539 fold change
[3]; 20 mg/kg i.p., Mdr2 KO = 1.72254177, p=0.0018
  Tgfb1 expression (pro-fibrotic marker): 0.8986 fold change
[3]; 20 mg/kg i.p., Mdr2 KO = 2.20989385, p<0.0001
  Fcer1 expression (mast cell marker): 0.8866 fold change
[3]; 20 mg/kg i.p., Mdr2 KO = 2.21107066, p=0.7774
  Tpsb2 expression (mast cell marker): 1.341 fold change
[3]; 20 mg/kg i.p., Mdr2 KO = 2.33385383, p=0.0178
  Mcpt1 expression (mast cell marker): 0.723 fold change
[3]; 20 mg/kg i.p., Mdr2 KO = 3.28243911, p<0.0001
  Col1a1 expression (pro-fibrotic marker): 0.9248 fold change
[3]; 20 mg/kg i.p.
  Timp2 expression (pro-fibrotic marker): 0.9494 fold change
[3]; 20 mg/kg i.p., Mdr2 KO = 4.188847, p=0.0002
  Tgfb1 expression (senescence marker): 1.821 fold change
[3]; 20 mg/kg i.p., Mdr2 KO = 13.02486, p=0.0001
  Glb1l expression (senescence marker): 3.319 fold change
[3]; 20 mg/kg i.p., Mdr2 KO = 16.05029, p=0.0050
  Cdkn2c expression (senescence marker): 12.66 fold change
[3]; 20 mg/kg i.p., Mdr2 KO = 21.49752, p<0.0001
  Cdkn2a expression (senescence marker): 3.739 fold change
[4]; 10 mg/kg i.p., Mdr2 KO = 4.871969, p=0.6426
  hydroxyproline accumulation: 4.219
[4]; 20 mg/kg i.p., Mdr2 KO = 4.871969, p=0.0078
  hydroxyproline accumulation: 2.972
[4]; 20 mg/kg i.p.
  portal tract F4/80 immunoreactivity (macrophage marker): decrease
[4]
  collagen deposition: restricted
  expression of desmin levels (cholangiocyte activation marker): decrease
[4]; listed as compound 1 monoacetic acid solvate
  collagen deposition: decrease
[5]
  DAI score: decrease
  body weight loss (score): reduction in the body weight loss; also recorded: decrease
  occult blood score / rectal bleeding: reduction in bleeding; also recorded: decrease
  stool consistency score / diarrhea: reduction in diarrhea; also recorded: decrease

## CCC[C@@H](NC(=O)N1C/C(=N/OCC)NC[C@H](Cc2cc(Cl)ccc2OC)C1=O)c1ccc(C(=O)O)c(N)c1 [Compound 1, 2-amino-4-[(1R)-1-({[(3Z,6S)-6-(5-chloro-2-methoxybenzyl)-3-(ethoxyimino)-7-oxo-1,4-diazepan-1-yl]carbonyl}amino)butyl]benzoic acid]
[4]; 20 mg/kg i.p.
  portal tract F4/80 immunoreactivity (macrophage marker): reduces
[4]
  expression of desmin levels (cholangiocyte activation marker): reduction
[5]; 20 mg/kg i.p. QD day 3 to 9
  colon length reduction: significantly inhibits
[5]; 20 mg/kg
  DAI score: significantly attenuated
[5]; listed as compound 1, 20 mg/kg
  DAI score: < 2
[5]
  body weight loss (score): significantly attenuated
  occult blood score / rectal bleeding: significantly attenuated
  stool consistency score / diarrhea: significantly attenuated
